Results published in article PMC12261233, “Photoactivatable Cyclometalated Ir(III) Compound Penetrates the Blood-Brain Barrier in 3D Spheroidal and Advanced 3D Organoid Models of Inherently Resistant and Aggressive Brain Tumors” (ACS Pharmacology & Translational Science, 2025).

Assays:
Assay type in all cases: cell-based, human
[1] = tested on: cerebral organoid with U87MG spheroid implant; assay: Distribution of compound in organoid-spheroid implant model (confocal); conditions: 5 μM
Procedure: An implant fusion model was established to monitor the distribution of Ir4 within the tumor, represented by the implanted tumorspheres generated from U87MG, and healthy tissue, represented by the hiPSC-derived cerebral organoid. Before the implantation procedure, spheroids derived from U87MG glioblastoma were cultured for 72 h under 3D forming conditions using ULA plates (96-well U-shaped plate, Corning) in DMEM-F12 supplemented with 2% B27, epidermal growth factor (EGF) at 20 ng mL^–1, fibroblast growth factor 2 (FGF2) at 10 ng mL^–1, and BSA (0.15%). Cerebral organoids were generated through a four-step directed differentiation process from human induced pluripotent stem cells (hiPSCs, Gibco). The hiPSCs were cultured on Geltrex matrix (hESC-Qualified, Reduced Growth Factor Basement Membrane Matrix; Gibco) in StemFlex basal medium (DMEM/F12, Ham, 1:1) fully supplemented with StemFlex supplement (Gibco). […] After the initial differentiation phase, early organoids were monitored for the development of optically clear neuroectoderm (characterized by an optically bright, translucent surface) and the formation of large buds of translucent ectoderm that were not radially organized. […] The samples were then transferred to confocal Petri dishes containing drug-free cerebral maturation medium and analyzed using a confocal microscope (Leica CM SP5, Leica, Germany).

U87MG cells = assay: Iridium uptake in Transwell binary coculture BBB model (ICP-MS), U87MG; conditions: 24 h
Procedure: (§1) The cellular uptake of anticancer compounds after penetrating the BBB is crucial for their efficacy in treating brain tumors. Understanding the extent of cellular uptake provides insights into the distribution and localization of these compounds within brain tumor cells, making such studies essential for assessing their potential efficacy. We utilized the static Transwell binary coculture BBB model, comprising an […] hCMEC/D3 cell line (representing the BBB) and a glioblastoma U87MG cell line. In this model, hCMEC/D3 cells were seeded on the apical side of the Transwell, while U87MG cells were seeded on the basolateral side. […] After a 24-h incubation, cells were harvested, counted, and the iridium uptake by both cell lines was analyzed using ICP-MS. […]
(§2) To confirm that the tested compounds can effectively target and accumulate in the desired U87MG glioblastoma cells, a coculture model was employed to monitor cellular uptake in both hCMEC/D3 cells and U87MG cells. […] The total iridium uptake by U87MG or hCMEC/D3 cells was analyzed 24 h after treatment. In brief, the apical and basolateral parts were separated, and each cellular model was harvested by trypsinization, pelleted by centrifugation, and counted. […] The final iridium content was determined through ICP-MS analysis. The experiments were replicated in triplicate, and the data are expressed as nanograms of iridium per one million cells.

hCMEC/D3 cells = assay: Iridium uptake in Transwell binary coculture BBB model (ICP-MS), hCMEC/D3; conditions: 10 μM applied apically, 24 h
Procedure: as §1, §2

**Q.** How did the “distribution in organoid-spheroid fusion system” value [1] turn out when CCCCn1c2[n+](c3cc(C(=O)OC)ccc31)[Ir-3]13([Cl])([c]4ccccc4-2)[n+]2ccccc2-c2cc(-c4ccc(C)cc4)cc([n+]21)-c1cccc[n+]13.F[P-](F)(F)(F)(F)F [Ir4] was run?
**A.** predominantly accumulated in malignant tissues

**Q.** What about the “iridium uptake by U87MG cells” value (U87MG cells; 10 μM applied apically, binary coculture BBB model, basolateral cells) of the same molecule?
**A.** 108 ± 14 ng Ir/10^6 cells

**Q.** What about the “accumulation in U87MG cells compared to hCMEC/D3 cells” value (U87MG cells; 10 μM, coculture) of the same molecule?
**A.** more than 2 fold

**Q.** What about the “iridium uptake by hCMEC/D3 cells” value (hCMEC/D3 cells) of the same molecule?
**A.** 47 ± 7 ng Ir/10^6 cells
